Measured values published in US10633383B2, “Compounds for the treatment, alleviation or prevention of disorders associated with Tau aggregates” (AC Immune SA, priority 2018, dated 2020).
pEC50: −log10 of the molar value.

Columns and labels:
rTg4510 mice = assay: Total human Tau in CSF of rTg4510 mice (AlphaLISA); format: in vivo, mouse; details: 30 mg/kg bi-daily by gavage for 1 month, vs vehicle treated rTg4510 mice (FIG. 1)
Source text: In Vivo Efficacy of the Compounds of the Present Invention In Vivo Study Design for the Testing of Example 12 and Example 45
Double transgenic rTg4510 mice express the full-length human Tau carrying the P301L mutation (Tau4R0N-P301L) under the control of the tet-inducible CaMKII promoter (Ramsden et al., J. Neurosci., 2005⋅25(46):10637-10647). Single transgenic mice expressing only the tetracycline-controlled transactivator (tTA) were used as genotype controls. The study comprised 4 treatment groups (n=15 female for tTa group and n=11 female mice/group for the treatment) with the following group distribution (see Table 9). […]
Mice were deeply anesthetized by standard injectable anesthesia and transcardially perfused with cold PBS. […] Total human Tau in CSF Tau was quantified using the following antibody pairs: HT7-Acceptor beads+biotin (BT)-Tau13-donor beads. […]
After incubation of this mixture at room temperature for 1 hour, 25 μL of Streptavidin Donor beads (Perkin Elmer) at 25 μg/mL were added in the dark. Plates were analyzed after 30 minute incubation using the EnSpire Alpha instrument and EnSpire Workstation version 3.00. Data were analyzed by 1-way ANOVA followed by post-hoc comparisons and shown statistics refers to differences compared to vehicle treated rTg4510 mice.

[1] = test system: human neuroblastoma cell line overexpressing the full-length form of human Tau carrying the P301L mutation; assay: Reduction of intracellular Tau aggregation (AlphaLISA); format: cell-based; details: compound at 5 μM, 24 h, aggregated Tau normalized to total Tau, relative to DMSO-treated cells
Procedure: Reduction of Intracellular Tau Aggregation
A human neuroblastoma cell line overexpressing the full-length form of human Tau carrying the P301L mutation was cultured in complete medium [DMEM-F12 4.5 g/L Glutamax (Invitrogen), 15% FBS (Biochrom), 1% Peni/Strep (Invitrogen) supplemented with 2.5 μg/ml of G418 (Sigma-Aldrich) selection antibiotic]. The day before the experiment 5×10^5 cells/well were plated in a 6 well plate in 3 mL of complete medium. The next day, cells were incubated with DMSO or a compound of the present invention at a 5 μM for additional 24 h at 37° C. After incubation, cells were trypsinized, resuspended in 100 μl of homogenization buffer [25 mM Tris-HCl pH 7.4, 150 mM NaCl, 1 mM EDTA, 1 mM EGTA containing phosphatase inhibitors (30 mM NaF, 0.2 mM Na3VO4, 1 nM Okadaic acid, 1 mM PMSF, 5 mM Na4P2O7) and protease inhibitor cocktail (Complete™, Roche)], and then physically lysed with three rapid cycles of freezing and thawing. Samples were then directly tested in the AlphaLISA assay. Phosphorylated, aggregated, and total Tau were quantified by AlphaLisa using the following antibody pairs: • HT7-Acceptor beads+biotin (BT)-Tau13-Donor beads: Total Tau • HT7-Acceptor beads+biotin (BT)-HT7-Donor beads: Aggregated human Tau
The Tau13 (Abcam) was biotinylated using EZ-Link® NHS-PEO Solid Phase biotinylation kit (Thermo Scientific), while the HT7-biotin was from a commercial source (Thermo Scientific).
For each antibody pairs the concentration of acceptor beads and biotinylated antibodies was optimized. All samples were first tested in a dilution series in PBS in order to identify the linear range and optimal dilution for each sample and assay. For the final protocol, the following reagents were added in a 384-well white OptiPlate (PerkinElmer): • 5 μL of test diluted sample • 20 μL of the mixture biotin-mAb acceptor beads at the following final concentrations: • HT7-BT at 1.25 nM in combination with HT7-Acc beads at 10 μg/ml • Tau13-BT at 5 nM in combination with HT7-Acc beads at 2.5 μg/ml
After incubation of this mixture at room temperature for 1 h, 25 μL of Streptavidin Donor beads (Perkin Elmer) at 25 μg/mL were added in the dark. Plates were analyzed after 30 min incubation using the EnSpire Alpha instrument and EnSpire Workstation version 3.00. Data for aggregated Tau were normalized to total Tau and then expressed as percentage of the DMSO-treated cells.

[2] = molecular target: T1, Tau K18 fragment (amino acids 244 to 372 of human Tau441) aggregates (Homo sapiens, UniProt P10636); assay: Tau K18 disaggregation assay by ThT; format: biochemical; details: 2 μM K18 aggregates, 30 minutes at RT, ThT fluorescence
T1 construct: encompassing amino acids 244 to 372 of the longest isoform (2N4R) of human Tau441; host or cells: bacteria
T1 sequence (P10636 561-689): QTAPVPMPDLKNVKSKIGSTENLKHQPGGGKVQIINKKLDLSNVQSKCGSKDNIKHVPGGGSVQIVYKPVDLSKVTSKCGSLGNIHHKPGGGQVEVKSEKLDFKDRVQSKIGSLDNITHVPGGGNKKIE

**Q.** With `Fc1ccc2[nH]c3c(c2c1)CN(c1ccc2nc(N4CCOCC4)oc2c1)CC3` [Example 12] as the compound, how does the “Tau levels in CSF” value (rTg4510 mice) read?
**A.** decreased Tau levels in CSF

**Q.** What about the inhibition at 5 µM [1] of the same compound?
**A.** 25 to 50%

**Q.** And the pEC50 [2]?
**A.** > 5.00
